Data on one molecule can be found in patent publication US12077503B2, “Substituted cyclic amides and their use as herbicides” (FMC CORPORATION, priority 2015, dated 2024).

Common to all, as to assay type: in vivo
The test system of test [1] is sedge, umbrella (small-flower umbrella sedge, Cyperus difformis). Description: Test B flooded paddy test. The note with it: Cyperus difformis, Flood, 250 g ai/ha; scale of 0 to 100 where 0 is no effect and 100 is complete control; read-out: Sedge, Umbrella plant response rating. Put shortly: (§1)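 Visual ratings (0 none to 100 complete control) are relative to untreated plants, taken 13–15 d after treatment in a greenhouse. Test material went straight into floodwater standing 3 cm above the soil, kept constant, on plants at the 2-leaf stage.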

For test [2], the system named is rice (Oryra sativa). Description: Test B flooded paddy test. The settings on record: Oryza sativa, Flood, 250 g ai/ha; scale of 0 to 100 where 0 is no effect and 100 is complete control; read-out: Rice plant response rating. The procedure, abridged:
as §1

Test [3] deals with ducksalad (Heteranthera limosa). Put plainly: Test B flooded paddy test. The settings on record: Heteranthera limosa, Flood, 250 g ai/ha; scale of 0 to 100 where 0 is no effect and 100 is complete control; read-out: Ducksalad plant response rating. The procedure, abridged: as §1
The test system of test [4] is barnyardgrass (Echinochloa crus-galli). Description: Test B flooded paddy test. The note with it: Echinochloa crus-galli, Flood, 250 g ai/ha; scale of 0 to 100 where 0 is no effect and 100 is complete control; read-out: Barnyardgrass plant response rating. The procedure, abridged: as §1
Test [5] relates to pigweed (Amaranthus retroflexus). Put plainly: Test A preemergence. The note with it: Amaranthus retroflexus, pre-emergence, 240 h.
The test system of test [6] is Kochia (Kochia scoparia). Description: Test A preemergence. The settings on record: Bassia scoparia, pre-emergence, 240 h. The procedure, abridged:
(§2)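 Each rating is a visual injury score from 0 to 100 given about 10 d after treatment, judged against untreated controls kept alongside in the greenhouse. In loam soil–sand blend, seeds got a preemergence directed soil spray, while postemergence plants were 2 to 10 cm tall at spraying.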

The subject of test [7] is ryegrass, Italian (Italian ryegrass, Lolium multiflorum). Description: Test A preemergence. The note with it: Lolium multiflorum, pre-emergence, 240 h. The procedure, abridged:
as §2

Test [8] concerns barnyardgrass (Echinochloa crus-galli). Put plainly: Test A preemergence. The note with it: Echinochloa crus-galli, pre-emergence, 240 h. The procedure, abridged: as §2
The subject of test [9] is giant foxtail (Setaria faberii). Put plainly: Test A preemergence. The note with it: Setaria faberi, pre-emergence, 240 h. The procedure, abridged:
as §2

In test [10] the test system is ragweed (common ragweed, Ambrosia elatior). Put plainly: Test A preemergence. The note with it: Ambrosia artemisiifolia, pre-emergence, 240 h. Put shortly: as §2
Test [11] relates to corn (Zea mays). Description: Test A postemergence. The note with it: Zea mays, post-emergence, 240 h, 125 g ai/ha, Postemergence; visual injury after approximately 10 d; 0 to 100 scale where 0 is no effect and 100 is complete control. The procedure, abridged: as §2
Test [12] deals with Galium (catchweed bedstraw, Galium aparine). Description: Test A postemergence. The note with it: Galium, post-emergence, 240 h, 125 g ai/ha, Postemergence; visual injury after approximately 10 d; 0 to 100 scale where 0 is no effect and 100 is complete control; read-out: Plant response rating, Galium. The procedure, abridged:
as §2

In test [13] the test system is barnyardgrass (Echinochloa crus-galli). Put plainly: Test A postemergence. The settings on record: Echinochloa crus-galli, post-emergence, 240 h, 125 g ai/ha, Postemergence; visual injury after approximately 10 d; 0 to 100 scale where 0 is no effect and 100 is complete control; read-out: Plant response rating, Barnyardgrass. The procedure, abridged:
as §2

Test [14] concerns ragweed (common ragweed, Ambrosia elatior). Put plainly: Test A postemergence. The note with it: Ambrosia artemisiifolia, post-emergence, 240 h, 125 g ai/ha, Postemergence; visual injury after approximately 10 d; 0 to 100 scale where 0 is no effect and 100 is complete control; read-out: Plant response rating, Ragweed. The procedure, abridged:
as §2

On to `Cc1ccc([C@H]2CNC(=S)[C@@H]2C(=O)Nc2cccc(F)c2F)cc1` (racemic) [Compound 946], for which the pest or weed control at 250 g/ha in test [1], in test [2], in test [3] and in test [4] was 0% each time. Besides, the pest or weed control at 125 g/ha was found to be 0% in [5] (125 g ai/ha, Preemergence, visual injury rating after approximately 10 d, read-out: Pigweed plant response rating (0 to 100 scale, 0 is no effect, 100 is complete control)); 0% in test [6] (125 g ai/ha, Preemergence, visual injury rating after approximately 10 d, read-out: Kochia plant response rating (0 to 100 scale, 0 is no effect, 100 is complete control)); 0% in [7] (125 g ai/ha, Preemergence, visual injury rating after approximately 10 d, read-out: Ryegrass, Italian plant response rating (0 to 100 scale, 0 is no effect, 100 is complete control)); 60% in test [8] (125 g ai/ha, Preemergence, visual injury rating after approximately 10 d, read-out: Barnyardgrass plant response rating (0 to 100 scale, 0 is no effect, 100 is complete control)); 0% in test [9] (125 g ai/ha, Preemergence, visual injury rating after approximately 10 d, read-out: Foxtail, Giant plant response rating (0 to 100 scale, 0 is no effect, 100 is complete control)); 0% in test [10] (125 g ai/ha, Preemergence, visual injury rating after approximately 10 d, read-out: Ragweed plant response rating (0 to 100 scale, 0 is no effect, 100 is complete control)). Also, the pest or weed control at 125 g/ha in test [12] turned out to be 0%; in test [13], 60%; in [14], 0%. Further, the pest or weed control at 500 g/ha in [5] (500 g ai/ha, preemergence, visual injury rating about 10 d after treatment, 0 to 100 scale (0 no effect, 100 complete control), read-out: Pigweed plant response rating) came to 0%; in test [6] (500 g ai/ha, preemergence, visual injury rating about 10 d after treatment, 0 to 100 scale (0 no effect, 100 complete control), read-out: Kochia plant response rating), 50%; in test [7] (500 g ai/ha, preemergence, visual injury rating about 10 d after treatment, 0 to 100 scale (0 no effect, 100 complete control), read-out: Ryegrass, Italian plant response rating), 0%; in [8] (500 g ai/ha, preemergence, visual injury rating about 10 d after treatment, 0 to 100 scale (0 no effect, 100 complete control), read-out: Barnyardgrass plant response rating), 80%; in [9] (500 g ai/ha, preemergence, visual injury rating about 10 d after treatment, 0 to 100 scale (0 no effect, 100 complete control), read-out: Foxtail, Giant plant response rating), 20%; in test [10] (500 g ai/ha, preemergence, visual injury rating about 10 d after treatment, 0 to 100 scale (0 no effect, 100 complete control), read-out: Ragweed plant response rating) it was 0%. In test [11], the Corn plant response rating (crop injury, 0 = no effect, 100 = complete kill) at 125 g/ha came to 0%.
